Experimental data reported in US20240051931A1, “HDAC INHIBITORS” (University of Pittsburgh - Of the Commonwealth System of …, priority 2020, published 2024).

melting point [°C]	Compound
161 to 163	C#Cc1ccc2c(c1)CCC(C(=O)NO)O2 (stereo not shown) [Compound 19, 6-ethynyl-N-hydroxychromane-2-carboxamide]
149 to 151	O=C(NO)C1CCc2cc(C#CCOc3ccc(F)cc3)ccc2O1 (stereo not shown) [Compound 25, 6-(3-(4-Fluorophenoxy)prop-1-yn-1-yl)-N-hydroxychromane-2-carboxamide]
145 to 147	O=C(NO)C1CCc2cc(CCCOc3ccc(F)cc3)ccc2O1 (stereo not shown) [Compound 31, 6-(3-(4-Fluorophenoxy)propyl)-N-hydroxychromane-2-carboxamide]
90 to 92	O=C(NO)C1CCc2cc(C#CCOC(=O)N3CCc4ccccc4C3)ccc2O1 (stereo not shown) [Compound 36, 3-(2-(Hydroxycarbamoyl)chroman-6-yl)prop-2-yn-1-yl 3,4-dihydroisoquinoline-2(1H)-carboxylate]
82 to 84	O=C(NO)C1CCc2cc(CCCOC(=O)N3CCc4ccccc4C3)ccc2O1 (stereo not shown) [Compound 40, 3-(2-(Hydroxycarbamoyl)chroman-6-yl)propyl 3,4-dihydroisoquinoline-2(1H)-carboxylate]
218 to 219	O=C(NO)C1CCc2cc(-c3ccc(-c4ccccc4)cc3)ccc2O1 (stereo not shown) [Compound 44a, 6-([1,1′-Biphenyl]-4-yl)-N-hydroxychromane-2-carboxamide]
177 to 179	O=C(NO)C1CCc2cc(-c3ccc(F)cc3)ccc2O1 (stereo not shown) [Compound 44b, 6-(4-Fluorophenyl)-N-hydroxychromane-2-carboxamide]
89 to 91	O=C(NO)C1CCc2cc(-c3ccc(Cl)c(Cl)c3)ccc2O1 (stereo not shown) [Compound 44c, 6-(3,4-Dichlorophenyl)-N-hydroxychromane-2-carboxamide]
148 to 151	O=C(NO)C1CCc2ccc(OCc3ccc(C(F)(F)F)cc3)cc2O1 (stereo not shown) [Compound 50a, N-Hydroxy-7-((4-(trifluoromethyl)benzyl)oxy)chromane-2-carboxamide]
144 to 147	O=C(NO)C1CCc2ccc(OCCOc3ccc(F)cc3)cc2O1 (stereo not shown) [Compound 50b, 7-(2-(4-Fluorophenoxy)ethoxy)-N-hydroxychromane-2-carboxamide]
125 to 128	O=C(NO)C1CCc2ccc(OCc3ccccn3)cc2O1 (stereo not shown) [Compound 50c, N-Hydroxy-7-(pyridin-2-ylmethoxy)chromane-2-carboxamide]
141 to 147	O=C(NO)[C@@H]1CCc2ccc(OCc3ccccc3Cl)cc2O1 [Compound 50d, (S)-7-((2-Chlorobenzyl)oxy)-N-hydroxychromane-2-carboxamide]
174 to 176	O=C(NO)C1CCc2ccc(O)cc2O1 (stereo not shown) [Compound 55, N,7-Dihydroxychromane-2-carboxamide]
167 to 169	O=C(NO)C1CCc2ccc(-c3ccc(Cl)c(Cl)c3)cc2O1 (stereo not shown) [Compound 58a, 7-(3,4-Dichlorophenyl)-N-hydroxychromane-2-carboxamide]
155 to 158	Cn1ccc2cc(-c3ccc4c(c3)OC(C(=O)NO)CC4)ccc21 (stereo not shown) [Compound 58b, N-Hydroxy-7-(1-methyl-1H-indol-5-yl)chromane-2-carboxamide]
181 to 183	COc1ccc(-c2ccc3c(c2)OC(C(=O)NO)CC3)cc1 (stereo not shown) [Compound 58c, N-Hydroxy-7-(4-methoxyphenyl)chromane-2-carboxamide]
118 to 120	CN1CC(C(=O)NO)Oc2ccccc21 (stereo not shown) [Compound 78, N-Hydroxy-4-methyl-3,4-dihydro-2H-benzo[b][1,4]oxazine-2-carboxamide]
160 to 162	O=C(NO)C1CCc2cc(Cl)ccc2O1 (stereo not shown) [Compound 90, 6-Chloro-N-hydroxychromane-2-carboxamide]
176 to 178	O=C(Nc1cccc2c1O[C@H](C(=O)NO)CC2)OCc1ccccc1Cl [−11L, 2-Chlorobenzyl (S)-(2-(hydroxycarbamoyl)chroman-8-yl)carbamate]
